{"source": "patent US8192962B2", "about": "“Processes for detecting toxic substances” (Daikin Industries, Ltd., priority 2001, dated 2012)", "test_system": "Metabolism protein genes", "experiment": "DNA chip mRNA expression in yeast, metabolism protein genes (Table 7)", "assay_type": "cell-based, Saccharomyces cerevisiae S288C", "method": "Yeast (Saccharomyces cerevisiae S288C (α SUC2mal mel gap2 CUP1)) were incubated at 25° C. on YPD medium (yeast extract 1%, polypepton 2%, glucose 2%). One of toxic chemical substances was added to the cells at logarithmic growth phase, and the cells were further incubated for two hours. Cells were cultured without any chemical substance in the same condition, and were used as control. Concentrations of the chemical substances were defined to inhibit the growth of the yeast but not lead to death.\nAfter completion of the incubation, the culture was centrifuged to collect the cells. To the cells, sodium acetate buffer (50 mM sodium acetate, 10 mM EDTA, 1% SDS) was added, and the mixture was shaken at 65° C. for five minutes, followed by returning to room temperature, and obtaining the supernatant, of which the procedures were repeated two times. To the supernatant, ½ amount of a solution of phenol/chloroform was added, and the mixture was centrifuged to give a supernatant, which was added with an equal amount of chloroform, and the mixture was centrifuged to give a supernatant. To the supernatant, an equal amount of isopropanol containing 0.3 M sodium acetate was added, and the mixture was allowed to stand at room temperature for 30 minutes, after which the mixture was centrifuged to give a sediment of the whole RNAs. Seventy % ethanol was added to the sediment, and the mixture was again centrifuged to give a sediment, which was then dried and dissolved in water. mRNA was isolated from the whole RNAs as followings. In view of the fact that a poly A chain is attached to the 3′ terminus of mRNA, a polynucleotide having a poly T structure which was immobilized on the surface of latex beads was used to trap the mRNA, and then the mRNA was washed and eluted with spine column (Oligotex-dT30<Super>mRNA Purification Kit, Takara). Reverse transcription of the mRNA was conducted with a reverse transcriptase (Super Script II Reverse Transcriptase; catalogue No. 18064-014, GibcoBRL) using fluorescence-labeled nucleotides to give cDNAs that were introduced with Cy3-dUTP or Cy5-dUTP during the reverse transcription.\nThe labeled cDNAs were dissolved in TE buffer (10mM Tris-HCl/1 mM EDTA, pH8.0), and the solution was dropped on the DNA chip containing the whole genes of yeast (DNA Chip Research Inc. Japan) so that the cDNAs were hybridized on the DNA chip at 65° C. for over 12 hours. The fluoresces intensity of the DNA chip was read with a scanner, and the ratio relative to the fluorescence intensity resulting from the absence of chemical substance was estimated as the following, which is shown in Tables 1 to 9: […]", "data": [{"smiles": "Oc1cc(Cl)c(Cl)cc1Cl", "note": "[(6), 2,4,5-trichlorophenol]", "values": [{"measurement": "The level of expressed mRNA in the presence of chemical substance/The level of expressed mRNA in the absence of chemical substance", "setting": "yeast gene YKL035W", "value": 1.2}, {"measurement": "level of expressed mRNA in the presence/in the absence of chemical substance", "setting": "yeast gene YKL060C", "value": 1.3}, {"measurement": "The level of expressed mRNA in the presence of chemical substance/The level of expressed mRNA in the absence of chemical substance", "setting": "yeast gene YKL091C", "value": 2.2}, {"measurement": "The level of expressed mRNA in the presence of chemical substance/The level of expressed mRNA in the absence of chemical substance", "setting": "yeast gene YKL104C", "value": 0.9}, {"measurement": "level of expressed mRNA in the presence/in the absence of chemical substance", "setting": "yeast gene YKL148C", "value": 0.5}, {"measurement": "The level of expressed mRNA in the presence of chemical substance/The level of expressed mRNA in the absence of chemical substance", "setting": "yeast gene YKL152C", "value": 1.6}, {"measurement": "level of expressed mRNA in the presence/in the absence of chemical substance", "setting": "yeast gene YKL157W", "value": 1.5}, {"measurement": "The level of expressed mRNA in the presence of chemical substance/The level of expressed mRNA in the absence of chemical substance", "setting": "yeast gene YKL213C", "value": 1.0}, {"measurement": "The level of expressed mRNA in the presence of chemical substance/The level of expressed mRNA in the absence of chemical substance", "setting": "yeast gene YKL215C", "value": 2.1}, {"measurement": "The level of expressed mRNA in the presence of chemical substance/The level of expressed mRNA in the absence of chemical substance", "setting": "yeast gene YKL218C", "value": 3.6}, {"measurement": "level of expressed mRNA in the presence/in the absence of chemical substance", "setting": "yeast gene YKR034W", "value": 0.9}, {"measurement": "The level of expressed mRNA in the presence of chemical substance/The level of expressed mRNA in the absence of chemical substance", "setting": "yeast gene YKR039W", "value": 2.8}, {"measurement": "The level of expressed mRNA in the presence of chemical substance/The level of expressed mRNA in the absence of chemical substance", "setting": "yeast gene YLL058W", "value": 1.4}, {"measurement": "level of expressed mRNA in the presence/in the absence of chemical substance", "setting": "yeast gene YLR006C", "value": 0.9}, {"measurement": "level of expressed mRNA in the presence/in the absence of chemical substance", "setting": "yeast gene YLR044C", "value": 1.5}, {"measurement": "level of expressed mRNA in the presence/in the absence of chemical substance", "setting": "yeast gene YLR056W", "value": 1.2}, {"measurement": "level of expressed mRNA in the presence/in the absence of chemical substance", "setting": "yeast gene YLR058C", "value": 0.9}, {"measurement": "level of expressed mRNA in the presence/in the absence of chemical substance", "setting": "yeast gene YLR081W", "value": 0.9}, {"measurement": "level of expressed mRNA in the presence/in the absence of chemical substance", "setting": "yeast gene YLR089C", "value": 1.5}, {"measurement": "The level of expressed mRNA in the presence of chemical substance/The level of expressed mRNA in the absence of chemical substance", "setting": "yeast gene YLR142W", "value": 3.1}, {"measurement": "The level of expressed mRNA in the presence of chemical substance/The level of expressed mRNA in the absence of chemical substance", "setting": "yeast gene YLR180W", "value": 1.2}, {"measurement": "The level of expressed mRNA in the presence of chemical substance/The level of expressed mRNA in the absence of chemical substance", "setting": "yeast gene YLR273C", "value": 1.2}, {"measurement": "level of expressed mRNA in the presence/in the absence of chemical substance", "setting": "yeast gene YLR284C", "value": 0.9}, {"measurement": "The level of expressed mRNA in the presence of chemical substance/The level of expressed mRNA in the absence of chemical substance", "setting": "yeast gene YLR299W", "value": 0.9}, {"measurement": "The level of expressed mRNA in the presence of chemical substance/The level of expressed mRNA in the absence of chemical substance", "setting": "yeast gene YLR300W", "value": 1.1}, {"measurement": "level of expressed mRNA in the presence/in the absence of chemical substance", "setting": "yeast gene YLR304C", "value": 1.9}, {"measurement": "The level of expressed mRNA in the presence of chemical substance/The level of expressed mRNA in the absence of chemical substance", "setting": "yeast gene YLR307W", "value": 1.2}, {"measurement": "The level of expressed mRNA in the presence of chemical substance/The level of expressed mRNA in the absence of chemical substance", "setting": "yeast gene YLR348C", "value": 1.9}, {"measurement": "level of expressed mRNA in the presence/in the absence of chemical substance", "setting": "yeast gene YLR354C", "value": 1.5}, {"measurement": "level of expressed mRNA in the presence/in the absence of chemical substance", "setting": "yeast gene YLR372W", "value": 0.5}, {"measurement": "level of expressed mRNA in the presence/in the absence of chemical substance", "setting": "yeast gene YML022W", "value": 0.8}, {"measurement": "The level of expressed mRNA in the presence of chemical substance/The level of expressed mRNA in the absence of chemical substance", "setting": "yeast gene YML054C", "value": 1.8}, {"measurement": "The level of expressed mRNA in the presence of chemical substance/The level of expressed mRNA in the absence of chemical substance", "setting": "yeast gene YML070W", "value": 2.2}, {"measurement": "The level of expressed mRNA in the presence of chemical substance/The level of expressed mRNA in the absence of chemical substance", "setting": "yeast gene YML100W", "value": 2.8}, {"measurement": "The level of expressed mRNA in the presence of chemical substance/The level of expressed mRNA in the absence of chemical substance", "setting": "yeast gene YML110C", "value": 2.6}, {"measurement": "The level of expressed mRNA in the presence of chemical substance/The level of expressed mRNA in the absence of chemical substance", "setting": "yeast gene YMR008C", "value": 1.7}, {"measurement": "level of expressed mRNA in the presence/in the absence of chemical substance", "setting": "yeast gene YMR011W", "value": 0.6}, {"measurement": "level of expressed mRNA in the presence/in the absence of chemical substance", "setting": "yeast gene YMR015C", "value": 1.3}, {"measurement": "The level of expressed mRNA in the presence of chemical substance/The level of expressed mRNA in the absence of chemical substance", "setting": "yeast gene YMR020W", "value": 1.6}, {"measurement": "level of expressed mRNA in the presence/in the absence of chemical substance", "setting": "yeast gene YMR083W", "value": 1.8}, {"measurement": "The level of expressed mRNA in the presence of chemical substance/The level of expressed mRNA in the absence of chemical substance", "setting": "yeast gene YMR105C", "value": 2.8}, {"measurement": "The level of expressed mRNA in the presence of chemical substance/The level of expressed mRNA in the absence of chemical substance", "setting": "yeast gene YMR189W", "value": 1.9}, {"measurement": "level of expressed mRNA in the presence/in the absence of chemical substance", "setting": "yeast gene YMR205C", "value": 1.2}, {"measurement": "The level of expressed mRNA in the presence of chemical substance/The level of expressed mRNA in the absence of chemical substance", "setting": "yeast gene YMR250W", "value": 4.5}, {"measurement": "level of expressed mRNA in the presence/in the absence of chemical substance", "setting": "yeast gene YMR261C", "value": 0.6}, {"measurement": "The level of expressed mRNA in the presence of chemical substance/The level of expressed mRNA in the absence of chemical substance", "setting": "yeast gene YMR271C", "value": 4.2}, {"measurement": "The level of expressed mRNA in the presence of chemical substance/The level of expressed mRNA in the absence of chemical substance", "setting": "yeast gene YMR272C", "value": 2.6}, {"measurement": "The level of expressed mRNA in the presence of chemical substance/The level of expressed mRNA in the absence of chemical substance", "setting": "yeast gene YMR296C", "value": 0.4}]}]}
